Data published in PMC5999327 (Organic letters, 2018).

How the values were obtained:
HDAC1 = HDAC1 (Homo sapiens, UniProt Q13547); test: biochemical HDAC assay with ZMAL substrate, HDAC1; settings: read-out: HDAC1 IC50
Cal27 cells [1] = test: whole cell HDAC assay with Boc-Lys; type: cell-based; settings: Homo sapiens, CAL-27, read-out: HDAC (Cal27) IC50
Cal27 cells [2] = test: MTT cytotoxicity assay; type: cell-based; settings: Homo sapiens, CAL-27, read-out: MTT (Cal27) IC50
Cal27 cells [3] = test: western blotting of α-tubulin and histone H3 acetylation in Cal27; type: cell-based, human; settings: western blot, Cal27, compared to control

HDAC1, sequence (Q13547 whole entry): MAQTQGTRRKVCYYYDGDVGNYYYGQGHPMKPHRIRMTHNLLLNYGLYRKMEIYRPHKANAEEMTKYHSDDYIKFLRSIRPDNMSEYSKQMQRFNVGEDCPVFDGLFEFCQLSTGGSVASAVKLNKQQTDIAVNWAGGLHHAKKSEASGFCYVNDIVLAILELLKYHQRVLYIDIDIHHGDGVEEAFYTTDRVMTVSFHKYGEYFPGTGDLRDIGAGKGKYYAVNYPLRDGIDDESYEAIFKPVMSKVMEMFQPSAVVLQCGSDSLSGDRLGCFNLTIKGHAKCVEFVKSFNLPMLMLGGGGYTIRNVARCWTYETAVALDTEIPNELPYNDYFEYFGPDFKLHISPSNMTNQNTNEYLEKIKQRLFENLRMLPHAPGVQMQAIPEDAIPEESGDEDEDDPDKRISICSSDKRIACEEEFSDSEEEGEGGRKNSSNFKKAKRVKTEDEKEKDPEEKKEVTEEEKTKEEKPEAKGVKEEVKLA

Compound | IC50 (HDAC1) [nM] | IC50 (Cal27 cells [1]) [µM] | IC50 (Cal27 cells [2]) [µM] | acetylation of α-tubulin (Cal27 cells [3]) | acetylation of histone H3 (Cal27 cells [3])
O=C(NO)c1ccc(CC(=O)N(CCO)c2ccccc2)cc1 [HPOB] | 2100 | – | – | – | –
CCCCN(Cc1ccc(C(=O)NO)cc1)C(=O)Nc1ccccc1 [Nexturastat A] | – | 5.87 | 7.75 | – | –
CN1CCc2c(c3ccccc3n2Cc2ccc(C(=O)NO)cc2)C1 [Tubastatin A] | – | 11.4 | 5.34 | preferential hyperacetylation of α-tubulin | –
O=C(CCCCCCC(=O)Nc1ccccc1)NO [vorinostat] | – | – | – | increase in acetylation | increase in acetylation
